Data as given in US20020114868A1, “Highly soluble and stable nutritional compositions containing calcium and magnesium” (priority 1999, published 2002).
Where two headings read alike, the source gives them in different places. Marks after values point to notes of the source that are not given here.

Conditions: 3.4 g calcium equivalent in 8 ounces deionized water at 68° F

For `CC(O)C(=O)[O-].O=C([O-])[C@H](O)[C@@H](O)[C@H](O)[C@H](O)CO.[Ca+2]` [Gluconal ®, Calcium Gluconate Lactate], the “Dissolution Rates as % of Maximum Solubility” value (shortened to “Dissolution Rates as %”) (elapsed time 00:00.0 mm:ss.s) was 0%, the “Dissolution Rates as %” value (elapsed time 00:05.4 mm:ss.s) was 10% and the “Dissolution Rates as %” value (elapsed time 00:10.7 mm:ss.s) was 20%. The “Dissolution Rates as %” value (elapsed time 00:16.1 mm:ss.s) was 30%, the “Dissolution Rates as %” value (elapsed time 00:21.5 mm:ss.s) was 50% and the “Dissolution Rates as %” value (elapsed time 00:26.9 mm:ss.s) was 55%. For the same compound, the “Dissolution Rates as %” value (elapsed time 00:32.2 mm:ss.s) was 45%, the “Dissolution Rates as %” value (elapsed time 00:37.6 mm:ss.s) was 58% and the “Dissolution Rates as %” value (elapsed time 00:43.0 mm:ss.s) was 63%. The “Dissolution Rates as %” value (elapsed time 00:48.4 mm:ss.s) was 66%, the “Dissolution Rates as %” value (elapsed time 00:53.7 mm:ss.s) was 71% and the “Dissolution Rates as %” value (elapsed time 00:59.1 mm:ss.s) was 71%. For the same compound, the “Dissolution Rates as %” value (elapsed time 01:04.5 mm:ss.s) was 77%, the “Dissolution Rates as %” value (elapsed time 01:09.9 mm:ss.s) was 77% and the “Dissolution Rates as %” value (elapsed time 01:15.3 mm:ss.s) was 80%. For the same compound, the “Dissolution Rates as %” value (elapsed time 01:20.6 mm:ss.s) was 83%, the “Dissolution Rates as %” value (elapsed time 01:36.7 mm:ss.s) was 85% and the “Dissolution Rates as %” value (elapsed time 01:47.5 mm:ss.s) was 85%. For the same compound, the “Dissolution Rates as %” value (elapsed time 01:58.2 mm:ss.s) was 86%, the “Dissolution Rates as %” value (elapsed time 02:09.0 mm:ss.s) was 88% and the “Dissolution Rates as %” value (elapsed time 03:00.0 mm:ss.s) was 98%. For the same compound, the “Dissolution Rates as %” value (elapsed time 03:30.5 mm:ss.s) was 94%, the “Dissolution Rates as %” value (elapsed time 04:00.0 mm:ss.s) was 99% and the “Dissolution Rates as %” value (elapsed time 05:00.0 mm:ss.s) was 99%. The “Dissolution Rates as %” value (elapsed time 06:00.0 mm:ss.s) was 99%, the “Dissolution Rates as %” value (elapsed time 07:00.0 mm:ss.s) was 99%*** and the “Dissolution Rates as %” value (elapsed time 101:26.0 mm:ss.s) was 86%.
